Assays:
Met = Met (Homo sapiens, UniProt P08581); assay: Met phosphorylation assay in GTL16 cells; assay type: cell-based; parameters: endogenous in cells; host or cells: GTL16 cells; details: compound 1 hour, anti-Phospho-Met (Tyr1234/1235), read-out: Met Phosp.
Protocol: GTL16 cells were maintained in DMEM Medium supplemented with 10% fetal bovine serum (FBS) 2 mM L-Glutamine and 100 units penicillin/100 μg streptomycin, at 37° C. in 5% CO2.
(§1) Compounds were tested in the following assays in duplicate.
Met phosphorylation assay: GTL16 cells were plated out at […] cells per 60×15 mm dish (Falcon) in 3 mL of assay media. The following day compound at various concentrations were added in assay media and incubated for 1 hour at 37° C. 5% CO2. After 1 hour the media was aspirated, and the cells were washed once with 1×PBS. The PBS was aspirated and the cells were harvested in 100 μL of modified RIPA lysis buffer (Tris.Cl pH 7.4, 1% NP-40, 5 mM EDTA, 5 mM NaPP, 5 mM NaF, 150 mM NaCl, Protease inhibitor cocktail (Sigma), 1 mM PMSF, 2 mM NaVO4) and transferred to a 1.7 mL eppendorf tube and incubated on ice for 15 minutes. After lysis, the tubes were centrifuged (10 minutes, 14,000 g, 4° C.). Lysates were then transferred to a fresh eppendorf tube. The samples were diluted 1:2 (250,000 cells/tube) with 2×SDS PAGE loading buffer and heated for 5 minutes at 98° C. The lysates were separated on a NuPage 4-12% Bis-Tris Gel 1.0 mm×12 well (Invitrogen), at 200V, 400 mA for approximately 40 minutes. The samples were then transferred to a 0.45 micron Nitrocellulose membrane Filter Paper Sandwich (Invitrogen) for 1 hour at 75V, 400 mA. After transferring, the membranes were placed in blocking buffer for 1 hour at room temperature with gentle rocking. The blocking buffer was removed and a 1:500 dilution of anti-Phospho-Met (Tyr1234/1235) antibody (Cell Signaling Technologies Cat. # 3126L) in 5% BSA, 0.05% Tween 20 in 1×PBS was added and the blots were incubated overnight at room temperature. The following day the blots were washed three times with 1×PBS, 0.1% Tween20. A 1:3000 dilution of HRP conjugated goat anti-rabbit antibody (Jackson ImmunoResearch Laboratories Cat. # 111-035-003) in blocking buffer, was added and incubated for 1 hr at room temperature with gentle rocking. The blot was wash 3 times in PBS, 0.1% Tween20 and visualized by chemiluminescence with SuperSignal West Pico Chemiluminescent Substrate (Pierce #34078).

HCT116 cells = assay: 96-well XTT cell survival assay (HCT116 cells); assay type: cell-based; details: Homo sapiens, HCT-116, 72 hours
Protocol: HCT116 cells were maintained in McCoy's 5a Medium supplemented with 10% fetal bovine serum (FBS) 2 mM L-Glutamine and 100 units penicillin/100 μg streptomycin, at 37° C. in 5% CO2.
as §1
96-well XTT assay (HCT116 cells): Cells were grown in growth media containing various concentrations of compounds (duplicates) on a 96-well flat bottom plate for 72 hours at 37° C. in 5% CO2. The starting cell number was 5000 cells per well and volume was 120 μl. At the end of the 72-hour incubation, 40 μl of XTT labeling mixture (50:1 solution of sodium 3′-[1-(phenylaminocarbonyl)-3,4-tetrazolium]-bis (4-methoxy-6-nitro) benzene sulfonic acid hydrate and Electron-coupling reagent: PMS (N-methyl dibenzopyrazine methyl sulfate) were added to each well of the plate. After an additional 2-6 hours of incubation at 37° C., the absorbance reading at 650 nm was measured with a spectrophotometer.

Met, sequence (P08581 25-1390): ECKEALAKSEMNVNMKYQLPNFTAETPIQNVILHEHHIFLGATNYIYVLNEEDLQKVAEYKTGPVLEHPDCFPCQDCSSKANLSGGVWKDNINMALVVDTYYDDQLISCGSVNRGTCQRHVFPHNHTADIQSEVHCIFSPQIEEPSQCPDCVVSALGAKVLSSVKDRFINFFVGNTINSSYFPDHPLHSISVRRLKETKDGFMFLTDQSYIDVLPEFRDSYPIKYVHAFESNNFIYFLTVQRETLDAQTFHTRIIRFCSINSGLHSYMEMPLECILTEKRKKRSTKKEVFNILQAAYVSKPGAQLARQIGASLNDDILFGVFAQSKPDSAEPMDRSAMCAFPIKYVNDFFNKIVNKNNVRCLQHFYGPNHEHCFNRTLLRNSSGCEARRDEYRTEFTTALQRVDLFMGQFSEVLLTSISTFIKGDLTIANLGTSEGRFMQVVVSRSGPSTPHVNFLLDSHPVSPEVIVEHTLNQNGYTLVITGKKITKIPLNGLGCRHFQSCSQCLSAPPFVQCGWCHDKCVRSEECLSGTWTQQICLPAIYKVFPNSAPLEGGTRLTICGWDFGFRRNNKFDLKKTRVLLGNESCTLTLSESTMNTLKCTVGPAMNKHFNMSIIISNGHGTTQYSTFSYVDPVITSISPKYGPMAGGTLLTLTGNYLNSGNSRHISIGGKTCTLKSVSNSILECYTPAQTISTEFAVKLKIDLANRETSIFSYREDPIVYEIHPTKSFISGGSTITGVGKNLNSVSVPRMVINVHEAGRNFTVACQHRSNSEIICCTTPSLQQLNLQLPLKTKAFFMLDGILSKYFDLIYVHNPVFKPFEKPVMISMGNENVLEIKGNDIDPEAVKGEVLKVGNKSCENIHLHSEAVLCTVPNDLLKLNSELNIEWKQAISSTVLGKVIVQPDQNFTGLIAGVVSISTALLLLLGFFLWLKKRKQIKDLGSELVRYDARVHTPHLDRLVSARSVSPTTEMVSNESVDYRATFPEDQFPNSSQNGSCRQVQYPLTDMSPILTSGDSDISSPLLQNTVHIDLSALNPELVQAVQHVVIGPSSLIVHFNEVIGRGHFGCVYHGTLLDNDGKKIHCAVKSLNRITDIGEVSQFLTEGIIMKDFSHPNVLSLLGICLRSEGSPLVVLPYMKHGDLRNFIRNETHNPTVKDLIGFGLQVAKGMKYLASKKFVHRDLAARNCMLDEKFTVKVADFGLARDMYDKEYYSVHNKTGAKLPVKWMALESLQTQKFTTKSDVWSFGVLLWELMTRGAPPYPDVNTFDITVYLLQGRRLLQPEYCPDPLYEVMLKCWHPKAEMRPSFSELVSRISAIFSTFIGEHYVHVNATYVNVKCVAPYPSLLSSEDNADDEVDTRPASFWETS

| IC50 (Met) | Compound | IC50 (HCT116 cells) |
| --- | --- | --- |
| > 10000 nM | O=C(Nc1nc2[nH]nc(-n3cncc3-c3cccc(F)c3F)c2s1)C1CC1 [Cyclopropanecarboxylic acid {3-[5-(2,3-difluoro-phenyl)-imidazol-1-yl]-1H-pyrazolo[3,4-d]thiazol-5-yl}-amide] | 100 to 1000 nM |
| 1000 to 10000 nM | O=C(Nc1nc2[nH]nc(-n3cncc3-c3c(Cl)cccc3Cl)c2s1)C1CC1 [Cyclopropanecarboxylic acid {3-[5-(2,6-dichloro-phenyl)-imidazol-1-yl]-1H-pyrazolo[3,4-d]thiazol-5-yl}-amide] | 100 to 1000 nM |
| 1000 to 10000 nM | O=C(Nc1nc2[nH]nc(-n3cncc3-c3ccccc3Cl)c2s1)C1CC1 [Cyclopropanecarboxylic acid {3-[5-(2-chloro-phenyl)-imidazol-1-yl]-1H-pyrazolo[3,4-d]thiazol-5-yl}-amide] | 100 to 1000 nM |

Continued, compound first:

| Compound | IC50 (Met) | IC50 (HCT116 cells) |
| --- | --- | --- |
| O=C(Nc1cc[nH]n1)Nc1nc2[nH]nc(-n3cncc3-c3ccccc3Cl)c2s1 [1-{3-[5-(2-Chloro-phenyl)-imidazol-1-yl]-1H-pyrazolo[3,4-d]thiazol-5-yl}-3-(1H-pyrazol-3-yl)-urea] | > 10000 nM | 100 to 1000 nM |
| O=C(Nc1nc2[nH]nc(-n3cncc3-c3ccccn3)c2s1)C1CC1 [Cyclopropanecarboxylic acid [3-(5-pyridin-2-yl-imidazol-1-yl)-1H-pyrazolo[3,4-d]thiazol-5-yl]-amide] |  | 100 to 1000 nM |
| O=C(Nc1nc2[nH]nc(-n3cncc3-c3ccccc3)c2s1)C1CC1 [Cyclopropanecarboxylic acid [3-(5-phenyl-imidazol-1-yl)-1H-pyrazolo[3,4-d]thiazol-5-yl]-amide] |  | 100 to 1000 nM |
| O=C(Nc1nc2[nH]nc(-n3cncc3-c3c(Cl)ccc(Cl)c3Cl)c2s1)C1CC1 [Cyclopropanecarboxylic acid {3-[5-(2,3,6-trichloro-phenyl)-imidazol-1-yl]-1H-pyrazolo[3,4-d]thiazol-5-yl}-amide] |  | 1000 to 10000 nM |
